One experiment addresses T1, recombinant cPLA2 (Homo sapiens, UniProt P47712).
T1 construct: purchased US Biological P4074-03R
T1 sequence (P47712 1-749): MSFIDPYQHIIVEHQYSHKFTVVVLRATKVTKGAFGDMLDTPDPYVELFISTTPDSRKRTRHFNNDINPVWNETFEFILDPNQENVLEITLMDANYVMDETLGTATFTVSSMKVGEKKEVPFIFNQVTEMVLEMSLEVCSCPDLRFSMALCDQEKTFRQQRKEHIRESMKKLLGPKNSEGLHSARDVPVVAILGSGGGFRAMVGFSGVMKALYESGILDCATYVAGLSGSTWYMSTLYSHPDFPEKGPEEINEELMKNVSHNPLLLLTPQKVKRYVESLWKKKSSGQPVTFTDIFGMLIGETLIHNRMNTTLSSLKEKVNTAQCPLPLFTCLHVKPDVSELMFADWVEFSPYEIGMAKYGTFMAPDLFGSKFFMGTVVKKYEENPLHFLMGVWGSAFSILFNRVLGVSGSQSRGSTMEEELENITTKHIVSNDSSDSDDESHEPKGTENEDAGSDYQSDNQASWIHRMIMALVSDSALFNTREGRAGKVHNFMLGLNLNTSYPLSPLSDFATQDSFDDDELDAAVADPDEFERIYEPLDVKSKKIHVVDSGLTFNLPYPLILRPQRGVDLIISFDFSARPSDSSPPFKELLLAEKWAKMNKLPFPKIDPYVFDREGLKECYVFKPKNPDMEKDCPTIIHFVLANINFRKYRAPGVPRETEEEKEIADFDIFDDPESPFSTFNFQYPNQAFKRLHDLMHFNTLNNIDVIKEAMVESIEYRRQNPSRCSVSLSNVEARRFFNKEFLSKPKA
The experiment in a line: EnzChek phospholipase A2 fluorogenic assay (IC50). It is filed as biochemical. The protocol:
The assay was conducted as described above. Instead of adding a fixed concentration of the test compound, various concentrations of compound were reconstituted in DMSO. 48 μL of 1X phospholipase A2 reaction buffer were added into each well of a 96-wells plate. This was followed by addition of 1 μL of recombinant cPLA2 (P4074-03R, US Biological) and 1 μL of the respective concentration of the test compound dissolved in DMSO. The reaction was initiated by adding 50 μL of the substrate solution and incubating at room temperature for 1 h. Fluorescence was measured using a Varioskan plate reader by exciting at 485 nm, while fluorescence emission was detected at 515 nm. Positive control was performed when 1 μL of test compound was replaced by vehicle DMSO. IC50 was expressed as the mean value of duplicate wells from three experiments.

In experiment [1] the test system is ROS production in BV-2 cells. The experiment in a line: ROS assay (CM-H2DCFDA) in LPS-stimulated BV-2 cells. It is filed as cell-based, murine. The conditions noted are these: 2, 10 and 20 μM, 2 µg/mL LPS, 14 h. As to the method:
CM-H2DCFDA was used as the main detection reagent for ROS for this study. Being a chloromethyl derivative of the conventional H2DCFDA, it is better retained in the cells due to the reaction of its chloromethyl group with intracellular thiol species. In addition, esterase present in the cells would convert the acetate group found in CM-H2DCFDA into carboxylic acid, further retaining it in the cell. To investigate the ROS production by BV-2 cell stimulated with LPS, intracellular ROS was measured 14 h post-stimulation with CM-H2DCFDA fluorescence. A 2-fold increase in ROS was detected as compared to the control. […] This could be because the activation of ROS production might not be solely due to the inflammatory pathway mechanism involving cPLA2. It was reported in previous studies that a multitude of several other processes producing ROS may be at work[51],[52].
20,000 BV-2 cells were seeded into a 96-well plate in 100 uL of culture medium and allowed to grow overnight. When a 90% cell confluency was observed, lipopolysaccharide pre-dissolved in culture medium to achieve a concentration of 2 μg/mL was added to each well of the 96 well. Different concentrations of test compounds in DMSO were added to the LPS containing medium and was then transferred to the cells. […] Fluorescence detection was done by exciting the dye at 485 nm and detection of emission at 525 nm. […]

Each structure is given as a SMILES string.

As usually defined, the IC50 is the concentration that inhibits the measured activity by half.

As to `CCCCC/C=C\C/C=C\C/C=C\C/C=C\CCCCC(=O)Nc1cccc(C(=O)O)c1` [2i], the half-inhibitory concentration (IC50) on recombinant cPLA2 was 2900 ± 200 nM. In addition, the “fold stronger cPLA2 inhibition than 1a (from IC50)” value on recombinant cPLA2 (relative to 1a) was found to be 5.5 fold. For the same compound, the “ROS level, concentration dependence” value in experiment [1] is “dose-dependent decrease in ROS”.

Values taken from publication PMC5651845, “A New Generation of Arachidonic Acid Analogues as Potential Neurological Agent Targeting Cytosolic Phospholipase A2” (Scientific Reports, 2017).
